Measurements taken from ChEMBL document CHEMBL1129707, “Identification and biological activity of novel peptidomimetic gastrin/CCK-B receptor agonists” (Bioorg Med Chem Lett, 1996).

Assays:
[1] = target: T1, Cholecystokinin receptor type A (Rattus norvegicus, UniProt P30551); experiment: Tested for displacement of [3H]-L-364,718 from Cholecystokinin type A receptor in rat pancreas.
T1 sequence (P30551 whole entry): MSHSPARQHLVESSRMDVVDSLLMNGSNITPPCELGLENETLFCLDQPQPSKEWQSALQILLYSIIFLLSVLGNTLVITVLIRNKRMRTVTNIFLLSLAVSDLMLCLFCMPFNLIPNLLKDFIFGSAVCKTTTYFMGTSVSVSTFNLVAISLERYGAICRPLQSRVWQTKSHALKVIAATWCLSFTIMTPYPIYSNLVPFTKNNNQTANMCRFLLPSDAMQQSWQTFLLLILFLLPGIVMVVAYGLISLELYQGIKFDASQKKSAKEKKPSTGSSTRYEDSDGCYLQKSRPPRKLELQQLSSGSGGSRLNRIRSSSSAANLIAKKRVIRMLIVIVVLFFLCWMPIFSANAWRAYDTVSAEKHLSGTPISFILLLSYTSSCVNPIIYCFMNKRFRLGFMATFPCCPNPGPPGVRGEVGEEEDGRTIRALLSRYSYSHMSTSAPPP

[2] = target: T2, Gastrin/cholecystokinin type B receptor (Rattus norvegicus, UniProt P30553); experiment: Tested for displacement of [125I]-CCK-8 from Gastrin/Cholecystokinin type B receptor in rat brain.; format: tissue-based
T2 sequence (P30553 whole entry): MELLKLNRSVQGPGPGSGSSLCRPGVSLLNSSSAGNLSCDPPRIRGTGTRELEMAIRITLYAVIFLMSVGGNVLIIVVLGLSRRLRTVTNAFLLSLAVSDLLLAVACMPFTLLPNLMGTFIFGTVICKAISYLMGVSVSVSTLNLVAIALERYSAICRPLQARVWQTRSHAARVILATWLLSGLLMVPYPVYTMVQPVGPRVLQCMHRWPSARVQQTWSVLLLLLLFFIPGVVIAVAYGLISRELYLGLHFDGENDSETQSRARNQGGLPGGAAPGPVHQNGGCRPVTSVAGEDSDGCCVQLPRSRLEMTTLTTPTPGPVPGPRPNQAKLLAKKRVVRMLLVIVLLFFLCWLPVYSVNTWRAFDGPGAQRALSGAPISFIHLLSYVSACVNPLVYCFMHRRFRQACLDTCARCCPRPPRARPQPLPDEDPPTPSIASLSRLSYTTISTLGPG

Structure (SMILES)	IC50 [1] [µM]	IC50 [2] [nM]
CCCC[C@H](NC(=O)Cc1c[nH]c2ccccc12)C(=O)N(CC(=O)N1CCC[C@H]1C(=O)O)CC1CCCCC1	> 10	30.2
CCCC[C@H](NC(=O)Cc1c[nH]c2ccccc12)C(=O)N(CCc1ccccc1)CC(=O)O		165
O=C(Cc1c[nH]c2ccccc12)N[C@@H](Cc1ccccc1)C(=O)N(CCC1CCCCC1)CC(=O)N1CCC[C@H]1C(=O)O	> 10	0.94
CCCC[C@H](NC(=O)Cc1c[nH]c2ccccc12)C(=O)N(CCc1ccccc1)CC(=O)N1CCC[C@H]1C(=O)O		34
CCCC[C@H](NC(=O)Cc1c[nH]c2ccccc12)C(=O)N(CCC1CCCCC1)CC(=O)N1CCCC1	> 10	146
CCCC[C@H](NC(=O)Cc1c[nH]c2ccccc12)C(=O)N(CCc1ccccc1)CC(=O)N1CCCC1C(=O)O (stereo partly specified)		300
CCCC[C@H](NC(=O)Cc1c[nH]c2ccccc12)C(=O)N(CCC1CCCCC1)CC(=O)O	> 10	370
CCC[C@@H]1CCN(C(=O)[C@@H]2Cc3c[nH]c4cccc(c34)CC(=O)N2)[C@@H]1C(=O)N[C@@H](CC(=O)O)C(=O)N[C@@H](Cc1ccccc1)C(N)=O		0.7
CC(C)C[C@@H](C(=O)N[C@@H](CC(=O)O)C(=O)N[C@@H](Cc1ccccc1)C(N)=O)N1CC(=O)N[C@H](Cc2c[nH]c3ccccc23)C1=O		37.7
CC(C)(C)OC(=O)N1c2ccccc2C[C@@H]1C(=O)N1[C@@H](C(=O)N2Cc3ccccc3C[C@@H]2C(=O)N2CCC[C@@H]2C(=O)O)CC[C@H]1c1ccccc1	> 10	36
CC(C)(C)OC(=O)N1c2ccccc2C[C@@H]1C(=O)N1[C@@H](C(=O)N2Cc3ccccc3C[C@@H]2C(=O)NCC(=O)O)CC[C@H]1c1ccccc1	> 10	27
CCCC[C@H](NC(=O)Cc1c[nH]c2ccccc12)C(=O)N(CCC1CCCCC1)CC(=O)N1CCC[C@H]1C(=O)O	> 10	2.3
CC(C)(C)OC(=O)N1c2ccccc2C[C@@H]1C(=O)N1[C@@H](C(=O)N2CCc3ccccc3C2)CC[C@H]1c1ccccc1	> 10	52
CC(C)(C)OC(=O)N1c2ccccc2C[C@@H]1C(=O)N1[C@@H](C(=O)N2Cc3ccccc3C[C@@H]2CC(=O)O)CC[C@H]1c1ccccc1	> 10	35
CC(C)(C)OC(=O)N1c2ccccc2C[C@@H]1C(=O)N1[C@@H](C(=O)N2Cc3ccccc3C[C@@H]2C(=O)N2CCCC2C(=O)O)CC[C@H]1c1ccccc1 (stereo partly specified)	> 10	0.25
CC(C)(C)OC(=O)N1c2ccccc2C[C@@H]1C(=O)N1[C@@H](C(=O)N2Cc3ccccc3C[C@@H]2C(N)=O)CC[C@H]1c1ccccc1	> 10	170
CC(C)(C)OC(=O)N1c2ccccc2C[C@@H]1C(=O)N1[C@@H](C(=O)N2Cc3ccccc3C[C@@H]2C(=O)O)CC[C@H]1c1ccccc1	> 10	39
O=C(Cc1c[nH]c2ccccc12)N[C@@H](CCc1ccccc1)C(=O)N(CCC1CCCCC1)CC(=O)N1CCC[C@H]1C(=O)O	> 10	17
